Laboratory results reported in US20100075907A1, “NEUROMEDIN U RECEPTOR AGONISTS AND USES THEREOF” (priority 2006, published 2010).
Starred links: 1 amine or outer side, 2 acyl side, 3 side chain; linkers in the order of their positions; H or OH if unused. Non-standard residues stand in square brackets, D forms with d. Residues, ends and D or L forms follow the SMILES beside them. No end group written: not given here. *: point of attachment. X2 = CCN1C(=O)CC(SC[C@H](NC(C)=O)C(=O)NCCCOCCOCCOCCCN*)C1=O; Succinimide(1-Et,3-yl) = CCN1C(=O)CC(*)C1=O; Suc = O=C(CCC(=O)[*:2])[*:1]

Columns and labels:
Format in all cases: cell-based
Set-up in all cases: expressed in transfected cells; host or cells: FLP-In CHO or HEK-293 FLP-In cells (pcDNA5)
rat NMUR2 = rat NMUR2 (Rattus norvegicus, UniProt Q9ESQ4); assay: FLIPR calcium mobilization assay, rat NMUR2; conditions: for EC50: FLIPR; for IC50: functional data, rat R2
Chain of rat NMUR2 (Q9ESQ4 whole entry): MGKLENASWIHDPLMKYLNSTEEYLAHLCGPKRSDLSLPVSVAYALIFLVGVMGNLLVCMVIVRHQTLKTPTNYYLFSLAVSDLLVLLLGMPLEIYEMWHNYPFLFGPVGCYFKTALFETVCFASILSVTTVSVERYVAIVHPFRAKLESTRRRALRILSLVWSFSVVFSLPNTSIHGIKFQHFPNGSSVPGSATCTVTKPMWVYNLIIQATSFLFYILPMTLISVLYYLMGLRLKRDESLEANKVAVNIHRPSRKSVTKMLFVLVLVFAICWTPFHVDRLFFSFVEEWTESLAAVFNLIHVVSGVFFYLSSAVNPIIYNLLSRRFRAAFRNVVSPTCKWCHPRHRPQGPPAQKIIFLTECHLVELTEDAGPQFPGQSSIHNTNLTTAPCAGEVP
Source text: (§1) Human, mouse or rat cDNAs encoding NMUR1 or NMUR2 (as described in Howard et al. Nature 406: 70-74 (2000) were subcloned in pcDNA5 (Invitrogen) and transfected into FLP-In CHO cells and HEK-293 FLP-In cells purchased from Invitrogen (Carlsbad, Calif.) using lipofectamine (Invitrogen). The Flp-In system allows integration and expression of a particular gene of interest at a specific genomic location utilizing the Flp recombinase from yeast. The transfected cells were selected by growth in medium containing 200 μg/mL hygromycin (Invitrogen). Populations were frozen at early passage numbers, and these stocks were used for further studies. Stable clones that expressed the mRNAs were identified functionally by FLIPR as well as by RT-PCR. […] Two different rodent NMUR1 cell lines were thus generated: one with the codon as predicted from the genomic databases and another cell line with an engineered methionine (ATG) as the start codon. Additionally, stable cell lines expressing the human receptors were generated in HEK-293/aeq17 cells which stably express the aequorin gene under the CMV promoter. The human NMUR2 cDNA was cloned into pcDNA3.1 and human NMUR1 was subcloned into pIRES-puro (Clontech, Mountain View, Calif.), after transfection cells were selected in media containing G418 and either hygromycin (NMUR2) or puromycin (NMUR1).
(§2) The NMU receptors signal primarily through Gαq/11 proteins; therefore calcium mobilization assays can be utilized for functional activity.
(§3) Stable cell lines expressing human and or rodent NMUR1 or human NMUR2 receptors were plated at a density of 12,000 cells per well overnight on poly-lysine coated 384-well black-walled plates. The following day, the media was removed from the plates and the cells were subsequently loaded with Fluo-3 (Molecular Probes), a calcium sensitive dye, diluted in FLIPR buffer (1× Hank's buffered saline containing 20 mM HEPES, 0.1% BSA, 2.5 mM probenecid (Sigma) and 1.6 mM TR40). All reagents are from Invitrogen unless otherwise noted. Peptide stocks were resuspended in DMSO at a stock concentration of 2 mM and diluted in FLIPR buffer on the day of the experiment to a 4 μM working stock solution.
(§4) After a 90 minute incubation at room-temperature, cell plates were loaded onto a FLIPR (Molecular Devices) to monitor cellular fluorescence (excitation=488 nm; emission=540 nm) before and after compound/peptide addition. Eight to twelve point dose responses were tested on NMUR-expressing cell lines using FLIPR with 1 μM peptide as the highest dose. The response after peptide addition was taken as the maximum fluorescence units minus the fluorescence immediately prior to stimulation for each well. EC50 values were calculated using GraphPad Prism (San Diego, Calif.) software.
(§5) In vitro responses of Neuromedin U receptor agonists (NMU1 to NMU25) in the FLIPR assay for human (Table 3), mouse (Table 4) and rat (Table 5) NMUR1 and NMUR2. EC50s are reported in nM values. Percent activity refers to the maximum response at 1 μM compared to the hNMU-25 response at the same concentration. NT=not tested.

rat NMUR1-ATG = target: T1, rat NMUR1-ATG (Rattus norvegicus, UniProt Q9JJI5); assay: FLIPR calcium mobilization assay, rat NMUR1-ATG; conditions: for EC50: FLIPR; for IC50: functional data
T1 sequence (Q9JJI5 1-425): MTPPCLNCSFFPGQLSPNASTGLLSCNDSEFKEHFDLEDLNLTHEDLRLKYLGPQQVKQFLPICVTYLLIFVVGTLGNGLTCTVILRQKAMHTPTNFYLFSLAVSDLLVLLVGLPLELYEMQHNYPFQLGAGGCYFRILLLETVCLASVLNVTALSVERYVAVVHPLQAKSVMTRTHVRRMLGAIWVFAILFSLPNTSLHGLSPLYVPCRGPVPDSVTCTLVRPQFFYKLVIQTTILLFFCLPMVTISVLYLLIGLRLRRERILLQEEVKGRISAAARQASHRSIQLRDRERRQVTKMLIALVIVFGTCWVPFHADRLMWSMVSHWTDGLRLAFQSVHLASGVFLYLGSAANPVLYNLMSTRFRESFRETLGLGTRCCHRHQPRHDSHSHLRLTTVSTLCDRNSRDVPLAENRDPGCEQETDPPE
Source text: as §1, §2, §3, §4, §5

Mouse NMUR1-CTG = target: T2, Mouse NMUR1-CTG (Mus musculus, UniProt O55040); assay: FLIPR calcium mobilization assay, mouse NMUR1-CTG; conditions: for EC50: FLIPR; for IC50: functional data
T2 sequence (O55040 1-428): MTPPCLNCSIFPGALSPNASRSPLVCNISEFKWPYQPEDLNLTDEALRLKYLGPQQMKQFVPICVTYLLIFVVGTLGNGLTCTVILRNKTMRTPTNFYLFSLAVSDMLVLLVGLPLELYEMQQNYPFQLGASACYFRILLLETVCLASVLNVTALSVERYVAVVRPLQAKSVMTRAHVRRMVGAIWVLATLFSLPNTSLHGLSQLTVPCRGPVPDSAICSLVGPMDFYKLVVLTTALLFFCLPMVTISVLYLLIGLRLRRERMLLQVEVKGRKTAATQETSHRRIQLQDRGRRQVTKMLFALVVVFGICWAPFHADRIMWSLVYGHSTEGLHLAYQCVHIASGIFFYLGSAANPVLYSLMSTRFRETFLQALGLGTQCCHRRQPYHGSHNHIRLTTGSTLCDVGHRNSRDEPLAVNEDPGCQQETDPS
Source text: as §1, §2, §3, §4, §5

[1] = maximum response at 1 μM compared to hNMU-25, rat NMUR2
[2] = maximum response at 1 μM compared to hNMU-25, rat NMUR1-ATG
[3] = maximum response at 1 μM compared to hNMU-25, mouse NMUR1-CTG

Molecule	% Activity (rat NMUR2; [1]) [%]	% Activity (rat NMUR1-ATG; [2]) [%]	% Activity (Mouse NMUR1-CTG; [3]) [%]	EC50 (rat NMUR2; rat NMUR2) [nM]	further results
CCN1C(=O)CC(SC[C@H](NC(C)=O)C(=O)N[C@@H](CSC2CC(=O)N(CC)C2=O)C(=O)N[C@@H](Cc2ccccc2)C(=O)N[C@@H](CCCNC(=N)N)C(=O)N[C@H](C(=O)N[C@@H](CC(=O)O)C(=O)N[C@@H](CCC(=O)O)C(=O)N[C@@H](CCC(=O)O)C(=O)N[C@@H](Cc2ccccc2)C(=O)N[C@@H](CCC(N)=O)C(=O)N[C@@H](CO)C(=O)N2CCC[C@H]2C(=O)N[C@@H](Cc2ccccc2)C(=O)N[C@@H](C)C(=O)N[C@@H](CO)C(=O)N[C@@H](CCC(N)=O)C(=O)N[C@@H](CO)C(=O)N[C@@H](CCCNC(=N)N)C(=O)NCC(=O)N[C@@H](Cc2ccc(O)cc2)C(=O)N[C@@H](Cc2ccccc2)C(=O)N[C@@H](CC(C)C)C(=O)N[C@@H](Cc2ccccc2)C(=O)N[C@@H](CCCNC(=N)N)C(=O)N2CCC[C@H]2C(=O)N[C@@H](CCCNC(=N)N)C(=O)N[C@@H](CC(N)=O)C(N)=O)C(C)C)C1=O (stereo partly drawn) [NMU22] (Ac-C(Succinimide(1-Et,3-yl))C(Succinimide(1-Et,3-yl))FRVDEEFQSPFASQSRGYFLFRPRN-NH2)	98.8	100	100	–	–
Ac-C2FQSPFASQSRGYFLFRPRN-CONH2 ({Ac-C(PEG 40 kDa)}-FQSPFASQSRGYFLFRPRN-NH2; not fully specified; printed as Ac-C2FQSPFASQSRGYFLFRPRN-CONH2) [NMU20, C2 = Cys(PEG)240 kDa]	–	–	65.4	16.9	EC50 (rat NMUR1-ATG; rat NMUR1-ATG): 7.2 nM; EC50 (Mouse NMUR1-CTG; mouse NMUR1-CTG): 480 nM
H-FRVDEEFQSPFASQSRGYFLFRPRN-NH2 [hNMU-25, reference compound]	–	–	–	–	IC50 (rat NMUR2): 1.6 nM; IC50 (rat NMUR1-ATG; rat R1-ATG): 1.3 nM; IC50 (Mouse NMUR1-CTG; mouse R1-CTG): 2.9 nM
H-FRVDEEFQSPFASQSRPYFLFRPRN-NH2 [NMU4]	100	100	100	–	–
CCN1C(=O)CC(SC[C@H](NC(C)=O)C(=O)NCCCOCCOCCOCCCNC(=O)CCC(=O)N[C@@H](Cc2ccccc2)C(=O)N[C@@H](CC(C)C)C(=O)N[C@@H](Cc2ccccc2)C(=O)N[C@@H](CCCNC(=N)N)C(=O)N2CCC[C@H]2C(=O)N[C@@H](CCCNC(=N)N)C(=O)N[C@@H](CC(N)=O)C(N)=O)C1=O (stereo partly drawn) [NMU15, Ac-C1-Ttds-FLFRPRN-CONH2] ({X2-Suc}-FLFRPRN-NH2)	100	100	100	2.2	–
CCN1C(=O)CC(SC[C@H](NC(C)=O)C(=O)N[C@@H](Cc2ccccc2)C(=O)N[C@@H](CCC(N)=O)C(=O)N[C@@H](CO)C(=O)N2CCC[C@H]2C(=O)N[C@@H](Cc2ccccc2)C(=O)N[C@@H](C)C(=O)N[C@@H](CO)C(=O)N[C@@H](CCC(N)=O)C(=O)N[C@@H](CO)C(=O)N[C@@H](CCCNC(=N)N)C(=O)NCC(=O)N[C@@H](Cc2ccc(O)cc2)C(=O)N[C@@H](Cc2ccccc2)C(=O)N[C@@H](CC(C)C)C(=O)N[C@@H](Cc2ccccc2)C(=O)N[C@@H](CCCNC(=N)N)C(=O)N2CCC[C@H]2C(=O)N[C@@H](CCCNC(=N)N)C(=O)N[C@@H](CC(N)=O)C(N)=O)C1=O (stereo partly drawn) [NMU19] (Ac-C(Succinimide(1-Et,3-yl))FQSPFASQSRGYFLFRPRN-NH2)	100	100	110.8	–	–
Ac-C4FRVDEEFQSPFASQSRGYFLFRPRN-CONH2 ({Ac-C(PEG 20 kDa)}-FRVDEEFQSPFASQSRGYFLFRPRN-NH2) [NMU21, C4 = Cys(PEG)20 kDa]	99.2	99.9	90.8	7	EC50 (rat NMUR1-ATG; rat NMUR1-ATG): 19.5 nM; EC50 (Mouse NMUR1-CTG; mouse NMUR1-CTG): 56.3 nM
CC(C)C[C@@H](NC(=O)[C@H](Cc1ccccc1)NC(=O)[C@H](Cc1ccc(O)cc1)NC(=O)CNC(=O)[C@H](CCCNC(=N)N)NC(=O)[C@H](CO)NC(=O)[C@H](CCC(N)=O)NC(=O)[C@H](CO)NC(=O)[C@H](C)NC(=O)[C@H](Cc1ccccc1)NC(=O)[C@@H]1CCCN1C(=O)[C@H](CO)NC(=O)[C@H](CCC(N)=O)NC(=O)[C@H](Cc1ccccc1)NC(=O)[C@H](CCC(=O)O)NC(=O)[C@H](CCC(=O)O)NC(=O)[C@H](CC(=O)O)NC(=O)[C@@H](NC(=O)[C@H](CCCNC(=N)N)NC(=O)[C@@H](N)Cc1ccccc1)C(C)C)C(=O)N[C@@H](Cc1c[nH]c2ccccc12)C(=O)N[C@@H](CCCNC(=N)N)C(=O)N1CCC[C@H]1C(=O)N[C@@H](CCCNC(=N)N)C(=O)N[C@@H](CC(N)=O)C(N)=O [Agonist H] (H-FRVDEEFQSPFASQSRGYF[dL]WRPRN-NH2; N-terminus assumed)	–	–	–	–	IC50 (rat NMUR2): > 1000 nM; % Activity (rat NMUR2; functional, rat R2, relative to native hNMU responses): 42%; IC50 (rat NMUR1-ATG; rat R1-ATG): 31.1 nM; % Activity (rat NMUR1-ATG; functional, rat R1-ATG, relative to native hNMU responses): 95%; IC50 (Mouse NMUR1-CTG; mouse R1-CTG): 66 nM; % Activity (Mouse NMUR1-CTG; functional, mouse R1-CTG, relative to native hNMU responses): 77%
Ac-FRVDEEFQSPFASQSRPYFLFRPRN-NH2 [NMU5]	100	100	100	–	–
Ac-FRVDEEFQSPFASQSRGYFLFRPRN-NH2 [NMU2]	100	89.2	100	2.2	–
GYFLFRPRN-NH2 [NMU3]	100	100	100	–	–
